Legend:
[1] = Aqueous solubility of raw material
Source text: The tiagabine employed in the following examples is the monohydrate crystalline form for the hydrochloride salt of the R isomer.

[2] = cited from earlier work
[3] = four hours after ingestion, deliberate overdose; cited from earlier work

aqueous solubility [1]	SMILES	half-life ([2]; in humans) [h]	elimination half-life ([2]; lowered by enzyme inducers) [h]	Plasma levels [3] [ng/mL]	plasma level relative to typical steady state therapeutic dosing levels [3] [times]
high	Cc1ccsc1C(=CCCN1CCCC(C(=O)O)C1)c1sccc1C.Cl (centres unmarked) [tiagabine hydrochloride monohydrate, N-(4,4-di(3-methylthien-2-yl)but-3-enyl) nipecotic acid hydrochloride]	–	–	–	–
–	Cc1ccsc1C(=CCCN1CCCC(C(=O)O)C1)c1sccc1C (centres unmarked) [tiagabine, N-(4,4-di(3-methylthien-2-yl)but-3-enyl) nipecotic acid]	5 to 8	2 to 3	3100	30
